Assays:
human Topo I = target: T1, human Topo I (Homo sapiens, UniProt P11387); experiment: Topoisomerase I inhibition assay; assay type: biochemical; conditions: for Topo I inhibition: final drug concentration 100 μM
T1 sequence (P11387 1-765): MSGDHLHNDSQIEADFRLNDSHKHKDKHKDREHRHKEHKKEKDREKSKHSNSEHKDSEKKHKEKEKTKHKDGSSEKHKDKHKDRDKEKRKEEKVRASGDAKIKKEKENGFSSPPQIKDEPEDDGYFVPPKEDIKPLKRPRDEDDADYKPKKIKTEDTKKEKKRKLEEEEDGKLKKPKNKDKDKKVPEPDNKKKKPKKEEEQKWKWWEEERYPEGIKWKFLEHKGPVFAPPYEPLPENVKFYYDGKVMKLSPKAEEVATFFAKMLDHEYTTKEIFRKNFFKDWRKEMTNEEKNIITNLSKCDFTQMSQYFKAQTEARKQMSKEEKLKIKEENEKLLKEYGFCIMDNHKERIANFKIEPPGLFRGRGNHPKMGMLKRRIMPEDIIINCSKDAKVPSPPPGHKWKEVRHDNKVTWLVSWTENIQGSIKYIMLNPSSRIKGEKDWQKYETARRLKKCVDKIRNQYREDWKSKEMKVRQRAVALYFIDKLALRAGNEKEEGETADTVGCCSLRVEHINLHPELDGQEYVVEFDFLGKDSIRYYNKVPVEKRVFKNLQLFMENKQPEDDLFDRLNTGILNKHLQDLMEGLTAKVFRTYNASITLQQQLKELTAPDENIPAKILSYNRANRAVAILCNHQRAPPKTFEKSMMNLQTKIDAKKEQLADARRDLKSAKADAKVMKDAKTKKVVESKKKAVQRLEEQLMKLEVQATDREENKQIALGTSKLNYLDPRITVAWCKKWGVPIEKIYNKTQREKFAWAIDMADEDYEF

[1] = system: four different endometrial cancer cell lines; assay type: cell-based, human; conditions: 72 hours
human Topo IIα = human Topo IIα (Homo sapiens, UniProt P11388); experiment: Topoisomerase II inhibition assay; assay type: biochemical; conditions: read-out: Topo II inhibition
human Topo IIα, sequence (P11388 whole entry): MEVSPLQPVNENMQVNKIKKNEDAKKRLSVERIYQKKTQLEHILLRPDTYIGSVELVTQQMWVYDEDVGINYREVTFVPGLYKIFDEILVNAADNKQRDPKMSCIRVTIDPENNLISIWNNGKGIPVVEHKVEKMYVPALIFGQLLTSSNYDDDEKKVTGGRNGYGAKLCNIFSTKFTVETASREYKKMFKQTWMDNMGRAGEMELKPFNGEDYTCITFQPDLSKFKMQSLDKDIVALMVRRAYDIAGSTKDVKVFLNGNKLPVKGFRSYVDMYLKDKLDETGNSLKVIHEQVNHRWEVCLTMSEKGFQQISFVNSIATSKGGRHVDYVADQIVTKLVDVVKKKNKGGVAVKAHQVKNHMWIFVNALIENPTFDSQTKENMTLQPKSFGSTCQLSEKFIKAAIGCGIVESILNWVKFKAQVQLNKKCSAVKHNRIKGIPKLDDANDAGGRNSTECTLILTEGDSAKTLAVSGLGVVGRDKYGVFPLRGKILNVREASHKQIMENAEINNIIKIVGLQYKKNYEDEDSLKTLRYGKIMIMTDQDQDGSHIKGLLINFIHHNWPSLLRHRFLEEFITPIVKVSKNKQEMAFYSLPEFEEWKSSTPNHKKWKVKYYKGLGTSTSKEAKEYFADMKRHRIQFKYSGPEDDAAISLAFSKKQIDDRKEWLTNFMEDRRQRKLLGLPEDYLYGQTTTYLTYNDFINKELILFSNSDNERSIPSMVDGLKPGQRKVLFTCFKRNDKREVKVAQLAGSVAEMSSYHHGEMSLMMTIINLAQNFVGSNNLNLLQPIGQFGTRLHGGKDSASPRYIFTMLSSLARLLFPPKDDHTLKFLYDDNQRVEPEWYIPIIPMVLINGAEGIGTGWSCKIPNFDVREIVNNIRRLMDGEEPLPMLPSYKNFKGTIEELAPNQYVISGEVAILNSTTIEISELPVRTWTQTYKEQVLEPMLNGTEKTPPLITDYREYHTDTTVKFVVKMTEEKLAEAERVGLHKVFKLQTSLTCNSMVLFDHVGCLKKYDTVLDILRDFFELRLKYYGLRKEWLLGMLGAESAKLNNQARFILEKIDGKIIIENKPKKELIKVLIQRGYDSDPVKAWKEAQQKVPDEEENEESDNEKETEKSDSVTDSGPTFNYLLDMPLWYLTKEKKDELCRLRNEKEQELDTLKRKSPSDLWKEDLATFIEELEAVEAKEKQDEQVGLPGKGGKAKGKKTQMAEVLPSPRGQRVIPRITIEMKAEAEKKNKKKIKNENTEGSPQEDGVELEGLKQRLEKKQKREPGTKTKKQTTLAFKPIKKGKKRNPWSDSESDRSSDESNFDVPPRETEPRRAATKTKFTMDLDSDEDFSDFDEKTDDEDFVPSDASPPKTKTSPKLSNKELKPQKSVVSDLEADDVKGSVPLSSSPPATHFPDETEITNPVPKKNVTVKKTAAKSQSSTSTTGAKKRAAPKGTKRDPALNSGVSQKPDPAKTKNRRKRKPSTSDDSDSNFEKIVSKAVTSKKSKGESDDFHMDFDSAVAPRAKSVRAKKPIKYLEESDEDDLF

microtubule assembly = conditions: cited from earlier work
Hec50co LOFp53 cells [2] = experiment: MTS cell viability assay, Hec50co LOFp53; assay type: cell-based; conditions: Homo sapiens, 72 h, read-out: cell viability
Hec50co GOFp53 cells [3] = experiment: MTS cell viability assay, Hec50co GOFp53; assay type: cell-based; conditions: Homo sapiens, 72 h, read-out: cell viability
KLE GOFp53 cells = experiment: MTS cell viability assay, KLE GOFp53; assay type: cell-based; conditions: Homo sapiens, 72 h, read-out: cell viability
Hec50co LOFp53 cells [4] = experiment: Cell cycle assay; assay type: cell-based, human; conditions: 10 nM PTX alone, 24 hours
Hec50co GOFp53 cells [5] = experiment: Cell cycle assay; assay type: cell-based, human; conditions: 10 nM PTX alone, 24 hours
tubulin = tubulin (Sus scrofa, UniProt P02554); experiment: Fluorescence-based tubulin polymerization assay; assay type: biochemical; conditions: 3 μM
tubulin, sequence (P02554 whole entry): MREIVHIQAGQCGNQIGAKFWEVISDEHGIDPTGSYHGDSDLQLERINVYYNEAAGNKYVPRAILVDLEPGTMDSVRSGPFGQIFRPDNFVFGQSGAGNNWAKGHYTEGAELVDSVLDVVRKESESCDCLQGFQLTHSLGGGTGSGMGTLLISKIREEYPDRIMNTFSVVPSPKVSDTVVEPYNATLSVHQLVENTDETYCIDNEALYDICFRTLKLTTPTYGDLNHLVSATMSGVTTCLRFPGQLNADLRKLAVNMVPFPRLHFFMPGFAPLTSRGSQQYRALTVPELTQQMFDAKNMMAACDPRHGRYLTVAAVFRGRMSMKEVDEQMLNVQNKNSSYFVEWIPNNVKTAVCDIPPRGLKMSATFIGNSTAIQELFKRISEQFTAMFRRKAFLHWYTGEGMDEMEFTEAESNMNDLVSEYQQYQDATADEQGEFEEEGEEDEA
tubulin, sequence (P02550 whole entry partner): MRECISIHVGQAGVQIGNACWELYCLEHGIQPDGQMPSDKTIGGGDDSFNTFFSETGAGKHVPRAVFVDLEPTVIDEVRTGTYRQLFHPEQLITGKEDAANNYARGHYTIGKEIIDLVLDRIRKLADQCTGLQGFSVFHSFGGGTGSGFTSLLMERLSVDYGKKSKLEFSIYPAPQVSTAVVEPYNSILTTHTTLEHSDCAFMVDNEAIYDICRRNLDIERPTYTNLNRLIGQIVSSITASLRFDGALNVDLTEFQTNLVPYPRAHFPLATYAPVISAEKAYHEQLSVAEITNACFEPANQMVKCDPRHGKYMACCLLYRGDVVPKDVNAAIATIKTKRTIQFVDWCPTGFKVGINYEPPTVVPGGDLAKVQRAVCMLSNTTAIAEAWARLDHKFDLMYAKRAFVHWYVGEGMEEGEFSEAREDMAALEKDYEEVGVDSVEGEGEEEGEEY

caspase-9 = experiment: Caspase-9 activity in Hec50co LOFp53 cells; assay type: cell-based, human; conditions: 24 hours
caspase-3 = experiment: Caspase-3 activity in Hec50co LOFp53 cells; assay type: cell-based, human; conditions: 5 nM or 10 nM PTX alone, 72 hours
[6] = system: Hec50co LOFp53 xenograft tumors; experiment: In vivo antitumor efficacy, human endometrial cancer xenograft model; parameters: species or system athymic Nu/Nu mice; conditions: five doses

Compound: CC[C@@]1(O)C(=O)OCc2c1cc1n(c2=O)Cc2cc3ccccc3nc2-1 [CAM, camptothecin]
- inhibition at 100 µM (human Topo I; read-out: Topo I inhibition): 52.6 ± 1.3%

Compound: O=C(O)c1cn(C2CC2)c2cc(N3CCNCC3)c(F)cc2c1=O [CIP, ciprofloxacin]
- benefit of CIP alone or in combination with PTX in comparison to PTX alone [1]: no benefits
- Topo I inhibition (human Topo I): no activity
- inhibition at 100 µM (human Topo IIα): 62.3 ± 17.1%
- impact on microtubule assembly in cells (microtubule assembly): does not impact

Compound: COc1cc([C@@H]2c3cc4c(cc3[C@@H](O[C@@H]3O[C@@H]5CO[C@@H](C)O[C@H]5[C@H](O)[C@H]3O)[C@H]3COC(=O)[C@H]23)OCO4)cc(OC)c1O [ETO, etoposide]
- inhibition at 100 µM (human Topo IIα): 96.3 ± 0.8%

Compound: CC(=O)O[C@H]1C(=O)[C@@]2(C)[C@H]([C@H](OC(=O)c3ccccc3)[C@]3(O)C[C@H](OC(=O)[C@H](O)[C@@H](NC(=O)c4ccccc4)c4ccccc4)C(C)=C1C3(C)C)[C@]1(OC(C)=O)CO[C@@H]1C[C@@H]2O [PTX, paclitaxel]
- viability at 0.01 µM (Hec50co LOFp53 cells [2]): 31.2 ± 4.1%
- viability at 0.01 µM (Hec50co GOFp53 cells [3]): 17.9 ± 1.4%
- viability at 0.01 µM (KLE GOFp53 cells): 63.5 ± 0.6%
- cells in the G2/M phase (Hec50co LOFp53 cells [4]): 43.7 ± 0.5%
- cells in the G2/M phase (Hec50co GOFp53 cells [5]): 57.3 ± 1.1%
- Topo I inhibition (human Topo I): no activity
- inhibition at 100 µM (human Topo IIα): 8.3 ± 4.2%
- onset time of tubulin polymerization (tubulin): approximately 5 minutes
- caspase-9 activity vs untreated (caspase-9; 5 nM PTX): did not show a significant difference
- caspase-9 activity vs untreated (caspase-9; 10 nM PTX): significant increase
- caspase-3 activity vs untreated (caspase-3): significantly higher
- average tumor volumes vs PBS group ([6]; 5 mg/kg PTX SC peritumoral): smaller than those in control mice injected with PBS, albeit not significantly
- average weight of tumors vs PBS group, day 53 ([6]; 5 mg/kg PTX ± 5 mg/kg CIP2b SC peritumoral): not significantly different
